# Laboratory results published in BigSolDB 2.1.
smiles,measurement,setting,value
COC1CCC2(CC1)NC(=O)C(c1cc(C)ccc1C)=C2O (stereo not given),solubility (mole fraction),"in acetonitrile, 288.15 K",0.000317
same,solubility (mole fraction),"in acetonitrile, 293.15 K",0.000345
same,solubility (mole fraction),"in acetonitrile, 298.15 K",0.000375
same,solubility (mole fraction),"in acetonitrile, 303.15 K",0.000463
same,solubility (mole fraction),"in acetonitrile, 308.15 K",0.00057
same,solubility (mole fraction),"in acetonitrile, 313.15 K",0.000681
same,solubility (mole fraction),"in acetonitrile, 318.15 K",0.000791
same,solubility (mole fraction),"in acetonitrile, 323.15 K",0.000923
same,solubility (mole fraction),"in acetonitrile, 328.15 K",0.0011
same,solubility (mole fraction),"in ethanol, 288.15 K",0.00255
same,solubility (mole fraction),"in ethanol, 293.15 K",0.00276
same,solubility (mole fraction),"in ethanol, 298.15 K",0.00302
same,solubility (mole fraction),"in ethanol, 303.15 K",0.00341
same,solubility (mole fraction),"in ethanol, 308.15 K",0.00392
same,solubility (mole fraction),"in ethanol, 313.15 K",0.00447
same,solubility (mole fraction),"in ethanol, 318.15 K",0.00513
same,solubility (mole fraction),"in ethanol, 323.15 K",0.00596
same,solubility (mole fraction),"in ethanol, 328.15 K",0.00681
same,solubility (mole fraction),"in methanol, 288.15 K",0.00339
same,solubility (mole fraction),"in methanol, 293.15 K",0.00379
same,solubility (mole fraction),"in methanol, 298.15 K",0.00431
same,solubility (mole fraction),"in methanol, 303.15 K",0.00473
same,solubility (mole fraction),"in methanol, 308.15 K",0.00528
same,solubility (mole fraction),"in methanol, 313.15 K",0.00589
same,solubility (mole fraction),"in methanol, 318.15 K",0.00656
same,solubility (mole fraction),"in methanol, 323.15 K",0.00735
same,solubility (mole fraction),"in methanol, 328.15 K",0.00832
same,solubility (mole fraction),"in n-propanol, 288.15 K",0.00252
same,solubility (mole fraction),"in n-propanol, 293.15 K",0.00303
same,solubility (mole fraction),"in n-propanol, 298.15 K",0.00348
same,solubility (mole fraction),"in n-propanol, 303.15 K",0.00402
same,solubility (mole fraction),"in n-propanol, 308.15 K",0.00453
same,solubility (mole fraction),"in n-propanol, 313.15 K",0.00518
same,solubility (mole fraction),"in n-propanol, 318.15 K",0.00603
same,solubility (mole fraction),"in n-propanol, 323.15 K",0.00697
same,solubility (mole fraction),"in n-propanol, 328.15 K",0.00799
same,solubility (mole fraction),"in water, 288.15 K",1.96e-06
same,solubility (mole fraction),"in water, 293.15 K",3.14e-06
same,solubility (mole fraction),"in water, 298.15 K",4.08e-06
same,solubility (mole fraction),"in water, 303.15 K",5.12e-06
same,solubility (mole fraction),"in water, 308.15 K",6.15e-06
same,solubility (mole fraction),"in water, 313.15 K",7.28e-06
same,solubility (mole fraction),"in water, 318.15 K",8.43e-06
same,solubility (mole fraction),"in water, 323.15 K",9.14e-06
same,solubility (mole fraction),"in water, 328.15 K",1.05e-05
